Laboratory results from paper PMC12455397 (Angewandte Chemie (International Ed. in English), 2025).

What was measured:
[1] = test system: NLRP3 inflammasome in macrophage-derived THP-1 cells; test: NLRP3 inflammasome / TLR4 activation in THP-1 macrophages (WB, ELISA); assay type: cell-based; settings: 100 µM, 24 h
[2] = test system: Nrf2-regulated genes (AKR1B10, NQO1, TRXR1, HO-1) in HaCaT human keratinocytes; test: HaCaT cell assay, RT-qPCR of Nrf2-regulated genes; assay type: cell-based; settings: WT HaCaT, 3, 1 and 0.33 µM, 5 h, normalized to TBP
[3] = test system: cGAS-STING pathway in macrophage-derived THP-1 cells; test: cGAS-STING pathway in THP-1 macrophages (WB); assay type: cell-based; settings: 100 µM, 24 h; cGAMP 4 µg/mL 6 h
human Keap1 Kelch = human Keap1 Kelch (Homo sapiens, UniProt Q14145); test: Fluorescence polarization (FP) competition assay with Cy5-Nrf2 peptide probe; settings: for Ki: ≥3 individual measurements
human Keap1 Kelch, sequence (Q14145 321-609): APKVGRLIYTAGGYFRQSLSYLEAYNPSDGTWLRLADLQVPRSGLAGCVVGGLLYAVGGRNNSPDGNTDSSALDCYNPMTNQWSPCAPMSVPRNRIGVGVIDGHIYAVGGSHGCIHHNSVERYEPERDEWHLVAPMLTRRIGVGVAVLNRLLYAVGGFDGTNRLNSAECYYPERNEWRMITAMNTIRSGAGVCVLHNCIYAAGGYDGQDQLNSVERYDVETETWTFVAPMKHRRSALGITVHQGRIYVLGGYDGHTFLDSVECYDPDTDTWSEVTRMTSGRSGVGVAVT

[4] = test system: Nrf2-regulated genes (AKR1B10, NQO1, TRXR1, HO-1) in HaCaT human keratinocytes; test: HaCaT cell assay, Western Blotting of Nrf2-regulated proteins; assay type: cell-based; settings: 24 h
[5] = test system: NQO1 mRNA in BEAS-2B cells; test: qPCR-based BEAS-2B cell assay (NQO1 mRNA); design: species or system human; settings: Homo sapiens, BEAS-2B, mean ± SEM, 2-4 independent experiments
Method: RT-qPCR were stimulated with compounds or DMSO diluted in DMEM and incubated for 24 h. DMSO was added accordingly to highest percentage compound volume added.
Upon 24 hour compound stimulation, the cells were trypsinized, washed, spun down and resuspended in 70 μL of ice-cold Pierce RIPA lysis buffer (Thermo Scientific) supplemented with 10 mM NaF, 1× complete protease cocktail inhibitor (Roche), and 5 IU mL-1 benzonase (Sigma), respectively. The protein concentrations were determined using the BCA protein assay kit (Thermo Scientific) and samples was equalized accordingly to the sample of lowest protein concentration. 1×XT sample buffer (Bio-Rad) and 1×XT reducing agent (Bio-Rad) were added to the samples, and lysates were denatured by boiling for 5 min at 95 °C. Denatured samples was separated by SDS-PAGE on a 4–20% Criterion TGX precast gradient gel (Bio-Rad). The gel ran initially for 20 min at 70 V and 45 min at 120 V and was then transferred onto a PVDF membrane (Bio-Rad) using a Trans-Blot Turbo transfer system. […]
Upon 5 hour compound stimulation, RNA was extracted from the cells using the High Pure RNA Isolation Kit (Roche, 11828665001) according to the manufacturer’s instructions. […] The quality and purity of the RNAs were assessed by Nanodrop spectrometry (DeNovix DS-11). Using the TaqMan detection systems, the gene expression of HO-1 (HMOX-1), NQO1, AKR1B10, and TRXR1 was determined by real-time PCR. […] The commercially available TaqMan assay (Thermo Fischer Scientific, cat. no. 4392938) was used, and samples were analyzed in a final volume of 10 μL reaction mix containing 5 μL of master mix, 0.2 μL of RT enzyme, 2.3 μL of nuclease-free water, […] (TATA-Box Binding Protein/TBP; […]
Hs00917067_m1, Thermo Fisher), and 2 μL of pure RNA. The samples were analyzed using a QuantStudioTM 3 real-time PCR instrument with the following program: 1 × (10 min, 48.0 °C; 10 min, 95.0 °C); 40 × (30 s, 95.0 °C; 1 min, 60.0 °C). […]
The upregulation of NQO1 mRNA in BEAS-2B cells was measured by qPCR, as previously described.[20] […]

[6] = test system: IFN signalling in macrophage-derived THP-1 cells; test: Type I IFN signalling after IFNβ stimulation in THP-1 macrophages (WB); assay type: cell-based; settings: 100 µM, 24 h; IFNβ 500 U/mL 1 h
THP1 cells = assay type: cell-based; settings: THP-1 WT, 10 and 100 µM, 48 h
Method: THP1 cells were exposed to the compounds for 48 hours at 10 and 100 μM. Viability was quantified using
propidium iodide exclusion through flow cytometry. PI-positive cells (dead or necrotic cells) were quantified
through red fluorescence on a BD C6 Accuri flow cytometer using a 488 nm excitation wavelength and an
emission filter of 585 nm ± 40 nm (BD Biosciences). 50,000 events were collected (n = 3 technical replicates
per condition). The experiment was repeated twice. Data are presented as mean ± SEM (n = 4‒10).

[7] = test system: differentiated THP1 macrophages (WT)
[8] = test system: Nrf2 KO THP1 cells differentiated into macrophages; test: RNA sequencing transcriptome analysis, Nrf2 KO THP-1 macrophages; assay type: cell-based; settings: 12 h, CDDO-Me 0.1 µM, DMF, 24, 28 10 µM, KI-696 1 µM
[9] = LPS or LPS+nigericin stimulation
[10] = WT, 12 h, CDDO-Me 0.1 µM, SFN, DMF, 24, 28 10 µM, KI-696 1 µM, NS = not significant

In the case of `Cc1cc2c(cc1C(CC(=O)O)c1ccc3ccc(OCC(=O)NC4CCCCCC4)cc3c1)OCO2` (stereo not shown) [Compound 24], the “NLRP3 inflammasome activation: release of cleaved caspase-1 and cleaved IL-1β in supernatants (WB)” value [1] is reported as “markedly decreased NLRP3 inflammasome activation”, the “cleavage of gasdermin D (GSDMD) (WB)” value [1] is reported as “prevented the cleavage of gasdermin D” and the “IL-1β release (ELISA) following NLRP3 activation” value ([1]; LPS 100 ng/mL 3 h + nigericin 10 µM 1 h) is reported as “confirmed a decrease”. For the same molecule, the “IL-1β release (ELISA) following high concentrations of LPS” value ([1]; LPS 2 µg/mL 6 h) was “no statistical difference was observed”, the “expression of NLRP3 (WB)” value [1, 9] was “markedly reduced” and the “total protein levels of pro-IL-1β (WB)” value [1, 9] was “also reduced”. For the same molecule, the “target gene mRNA expression (RT-qPCR)” value [2] was “several‐fold increases in target gene mRNA expression”, the “ISG15 levels (WB)” value [3] was “reduced levels” and the “total STING levels and STING activation (phosphorylated STING and TBK1) (WB)” value [3] was “reduced total STING levels and STING activation”. The Ki (human Keap1 Kelch; FP (Ki/nM), Table S2, mean ± SEM, NA: not active (measured up to 4 mM)) was 10.1 ± 1.4 nM, the Ki (human Keap1 Kelch; Ki (FP), mean, text and figures) was 10 nM and the “fold difference in affinity (FP) between the enantiomers of 24” value (human Keap1 Kelch; Peak 1 vs Peak 2 after chiral HPLC separation) was 14 fold. The “ligand efficiency (LE)” value (human Keap1 Kelch; from FP Ki) was 0.30, the “protein levels of Nrf2-regulated genes by WB” value ([4]; HaCaT, 10 µM) was “strong bands in WB for all tested proteins” and the “relative cell potency among the six compounds (WB)” value ([4]; HaCaT, 10, 3, 1 µM) was “most potent”. The EC50 [5] was 0.11 µM, the “IFN signalling (phosphorylated STAT1, IFIT1 protein levels) (WB)” value [6] was “did not affect IFN signalling” and the cell viability (THP1 cells) was “did not reduce cell viability”. The “AKR1B10 FC” value ([7]; Table S3, THP-1, 12 h) was 6,62 fold, the “CASP1 FC” value ([7]; Table S3, THP-1, 12 h) was 0,65 fold and the “COL1A1 FC” value ([7]; Table S3, THP-1, 12 h) was 1,40 fold. The “COL4A1 FC” value ([7]; Table S3, THP-1, 12 h) was 1,16 fold, the “COL4A2 FC” value ([7]; Table S3, THP-1, 12 h) was 1,10 fold and the “CYP1B1 FC” value ([7]; Table S3, THP-1, 12 h) was 1,14 fold. The “GPX1 FC” value ([7]; Table S3, THP-1, 12 h) was 0,60 fold, the “GPX4 FC” value ([7]; Table S3, THP-1, 12 h) was 1,13 fold and the “IFNAR1 FC” value ([7]; Table S3, THP-1, 12 h) was 0,93 fold. The “IFNAR2 FC” value ([7]; Table S3, THP-1, 12 h) was 1,00 fold, the “IFNGR1 FC” value ([7]; Table S3, THP-1, 12 h) was 0,63 fold and the “IFNGR2 FC” value ([7]; Table S3, THP-1, 12 h) was 0,73 fold. For the same molecule, the “IL1B FC” value ([7]; Table S3, THP-1, 12 h) was 0,85 fold, the “IRF3 FC” value ([7]; Table S3, THP-1, 12 h) was 0,96 fold and the “LAMB1 FC” value ([7]; Table S3, THP-1, 12 h) was 5,65 fold. The “LAMB4 FC” value ([7]; Table S3, THP-1, 12 h) was 4,43 fold, the “MMP8 FC” value ([7]; Table S3, THP-1, 12 h) was 0,79 fold and the “MMP9 FC” value ([7]; Table S3, THP-1, 12 h) was 0,91 fold. For the same molecule, the “MMP12 FC” value ([7]; Table S3, THP-1, 12 h) was 0,51 fold, the “NLRP3 FC” value ([7]; Table S3, THP-1, 12 h) was 0,79 fold and the “NOD2 FC” value ([7]; Table S3, THP-1, 12 h) was 0,35 fold. For the same molecule, the “NOXA1 FC” value ([7]; Table S3, THP-1, 12 h) was 0,41 fold, the “SOCS1 FC” value ([7]; Table S3, THP-1, 12 h) was 2,11 fold and the “SOCS3 FC” value ([7]; Table S3, THP-1, 12 h) was 2,26 fold. For the same molecule, the “SOD1 FC” value ([7]; Table S3, THP-1, 12 h) was 0,41 fold, the “SOD2 FC” value ([7]; Table S3, THP-1, 12 h) was 0,59 fold and the “STAT1 FC” value ([7]; Table S3, THP-1, 12 h) was 0,82 fold. For the same molecule, the “TBK1 FC” value ([7]; Table S3, THP-1, 12 h) was 0,86 fold, the “TLR4 FC” value ([7]; Table S3, THP-1, 12 h) was 1,17 fold and the “TNFRSF1B FC” value ([7]; Table S3, THP-1, 12 h) was 1,08 fold. The “TRAP1 FC” value ([7]; Table S3, THP-1, 12 h) was 0,82 fold, the “cGAS FC” value ([7]; Table S3, THP-1, 12 h) was 1,36 fold and the “KEGG pathway analysis of upregulated genes” value ([7]; WT, 10 µM, 12 h) was “activated other important gene clusters involved in cytokine receptor interaction and activation of immune cells”. For the same molecule, the “Average FC of upregulated Nrf2-dependent genes” value ([7]; WT, 12 h, CDDO-Me 0.1 µM, SFN, DMF, 24, 28 10 µM, KI-696 1 µM) was 2.7 fold, the “GCLM fold change vs vehicle” value [7, 10] was 3.0 fold and the “HMOX1 fold change vs vehicle” value [7, 10] was 2.2 fold. For the same molecule, the “SRXN1 fold change vs vehicle” value [7, 10] was 2.5 fold, the “TXNRD1 fold change vs vehicle” value [7, 10] was 2.9 fold and the “NQO1 upregulation at 24 h” value ([7]; WT, 24 h, 10 µM (footnote * of Figure 7c)) was 1.5 fold. The “number of up- or downregulated genes in Nrf2 KO cells” value [8] was 347 genes.
